In US20260092300A1, “MINIMUM INHIBITORY CONCENTRATION RECOGNITION METHOD, APPARATUS AND DEVICE, AND STORAGE MEDIUM” (AUTOBIO LABTEC INSTRUMENTS CO., LTD., priority 2022, published 2026):
Converted amounts (≈) assume the structure as drawn.

Key:
Type in all cases: cell-based
[1] = tested on: ATCC25922 Escherichia coli; assay: MIC determined by the method (lensless imaging, Siamese neural network image similarity); settings: incubation 2 hours to 4 hours at 37±2° C.
From the text: (§1) The antimicrobial susceptibility test plate is a commonly used experimental equipment in antimicrobial susceptibility tests, which consists of multiple regularly arranged microwells. In practice, the antimicrobial susceptibility test plate is of different specifications, generally including a 96-well plate and a 128-well plate. In the implementation, the operator first prepares the bacterial suspension of a sample (that is, the to-be-tested bacterial strain); opens an antibiotic-coated antimicrobial susceptibility test plate, of which the microwells are pre-coated with the to-be-tested antibiotic with different gradient concentrations (that is, the preset gradient concentrations), where the concentration gradients of the antibiotic may be designed according to the rules of the clinical laboratory standard institute; adds the bacterial suspension to the microwells via a sample loading well; and places the antimicrobial susceptibility test plate on the imaging platform upon completing the sample loading. The processor controls the imaging platform to perform lensless imaging on the microwells at an initial time instant immediately after the sample is added (that is, the time instant of not completing inhibition) and a time instant immediately after the preset incubation time period (that is, the time instant of completing bacteria inhibition) and saves the data, so as to obtain the testing images and the test control images of the to-be-tested bacterial strain. Alternatively, the processor performs lensless imaging on the microwells and the control microwells at the time instant immediately after the preset incubation time period and saves the data.
(§2) For example, the determination result of the minimum inhibitory concentrations of two commonly used clinical quality control strains (ATCC25922 Escherichia coli and ATCC25923 Staphylococcus aureus) through the method according to the embodiments validates the feasibility of the method. Preparation of the bacterial strain includes: sub-culturing the strain for the second to fourth generations for standby; selecting colonies to prepare a bacterial suspension with a McFarland 0.5 standard; pre-coating antibiotic in the microwells of the antimicrobial susceptibility test plate (the concentration of the antibiotic is prepared according to CLSI standard); mixing the bacterial suspension with agarose at a concentration of 0.6% to 1.0% and a temperature of 37° C. to 40° C. in a dilution ratio of 1:300 to 1:500; adding the mixture sample respectively to the microwells by centrifugation; and then placing the antimicrobial susceptibility test plate in an incubator (37±2° C.) to incubate for 2 hours to 4 hours. Data collection includes: when the incubation is completed, placing the antimicrobial susceptibility test plate on the lensless imaging platform to take the images of the wells (that is, microwells) and recording the images corresponding to different antibiotic concentrations, where the minimum inhibitory concentration (MIC) determined by using the method in the embodiments is obtained based on the images. As shown in Table 1 and Table 2, it can be seen from the MIC results determined through the method and antimicrobial susceptibility results of the clinical gold standard broth microdilution test (BMD) that the MIC results determined through the method according to the embodiment are more accurate and reliable, and the MIC results are determined in 2 hours to 4 hours through the method according to the embodiment, which is more efficient.

[2] = tested on: ATCC25922 Escherichia coli; assay: Broth microdilution test (BMD); settings: clinical gold standard broth microdilution test
[3] = tested on: ATCC25923 Staphylococcus aureus; assay: Broth microdilution test (BMD); settings: clinical gold standard broth microdilution test
[4] = tested on: ATCC25923 Staphylococcus aureus; assay: MIC determined by the method (lensless imaging, Siamese neural network image similarity); settings: incubation 2 hours to 4 hours at 37±2° C.
From the text: as §1, §2

Row | Molecule | MIC [1] [µg/mL] | MIC [2] [µg/mL] | MIC [3] [µg/mL] | MIC [4] [µg/mL] | The method (MIC) [1] [µg/mL] | BMD (MIC) [2] [µg/mL]
1 | NCC[C@H](O)C(=O)N[C@@H]1C[C@H](N)[C@@H](O[C@H]2O[C@H](CN)[C@@H](O)[C@H](O)[C@H]2O)[C@H](O)[C@H]1O[C@H]1O[C@H](CO)[C@@H](O)[C@H](N)[C@H]1O [Amikacin] | 4 (≈ 6.83 µM) | 1 to 4 (≈ 1.71 to 6.83 µM) |  |  |  | 
2 | CC1(C)S[C@@H]2[C@H](NC(=O)[C@H](N)c3ccccc3)C(=O)N2[C@H]1C(=O)O [Ampicillin] | 4 (≈ 11.4 µM) | 4 (≈ 11.4 µM) | 1 (≈ 2.86 µM) | 1 (≈ 2.86 µM) |  | 
3 | CO[C@@]1(NC(=O)Cc2cccs2)C(=O)N2C(C(=O)O)=C(COC(N)=O)CS[C@@H]21 [Cefoxitin] | 1 (≈ 2.34 µM) | 2 to 4 (≈ 4.68 to 9.36 µM) | 1 to 4 (≈ 2.34 to 9.36 µM) | 4 (≈ 9.36 µM) |  | 
4 | CC[C@H]1OC(=O)[C@H](C)[C@@H](O[C@H]2C[C@@](C)(OC)[C@@H](O)[C@H](C)O2)[C@H](C)[C@@H](O[C@@H]2O[C@H](C)C[C@H](N(C)C)[C@H]2O)[C@](C)(O)C[C@@H](C)C(=O)[C@H](C)[C@@H](O)[C@]1(C)O [Erythromycin] |  |  | 0.25 to 0.5 (≈ 0.341 to 0.681 µM) | 0.5 (≈ 0.681 µM) |  | 
5 | C[C@@H](O)[C@H]1C(=O)N2C(C(=O)O)=C(SCCN=CN)C[C@H]12 [Imipenem] | 0.12 (≈ 0.401 µM) | 0.06 to 0.25 (≈ 0.2 to 0.835 µM) |  |  |  | 
6 | Gentamycin |  |  |  |  | 0.25 | 0.25 to 0.5
